Measurements: patent US20090017103A1, “Antisense oligonucleotides for prevention of metastasis formation of cancer cells” (priority 2003, published 2009)
Values joined by “and” are separate entries in the source; they are usually repeats but may differ in a detail not shown here. Equal entries are not always repeated. “Also recorded” adds a separate entry of the source. Marks after values point to notes of the source that are not given here.

Columns and labels:
[1] = system: MDA-MB-231^GFP cells; assay: In vivo treatment with mini-osmotic pumps (osteolytic bone metastasis model);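 as to Mean size of lesion: mean lesion size in relative units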;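 as to Size of lesion (per animal): lesion size in relative units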; parameters: species or system nude rats; conditions: for X-ray scan of hind legs: lytic lesions (in words): FIG. 5-7; for T/C: vs NSO control; for T/C × 100: mean lesion size vs NSO control rats; for Incidence of metastasis: mini-osmotic pumps s.c., 7 mg/kg daily over four weeks
[2] = system: MDA-MB-231 breast cancer cells; assay: Clonogenicity assay (colony formation); assay type: cell-based, human; conditions: for inhibition of colony formation (colony growth inhibition): single exposure; for reduction of colony counts: twofold exposure; for repeated exposure compared with single exposure, colony formation (in words): twofold vs single ASO exposure
Procedure, shortened: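 MDA-MB-231 cells given lipofectamine-complexed ASO (5, 10 or 20 μM, 12 h) and/or ErPC3 (10, 14, 20 μM, 24 h), singly or in sequential cycles, then grown 48-72 h. 5000 cells plated in methylcellulose/30% FBS; MTT-stained colonies (≥30 cells) counted after 5-7 days.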

[3] = system: MDA-MB-231^GFP cells; assay: In vivo model with pretreated MDA-MB-231^GFP cells (osteolytic bone metastasis);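 as to Mean size of lesion: mean lesion size in relative units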; parameters: species or system nude rats; lesion size of the rat(s) that developed lytic metastasis, % of control / lesion sizes with respect to all animals of the group compared to untreated control / lesion size of individual animal compared to the untreated control / T/C % (mean lesion size compared to untreated control): concentration or dose not given beside the values; conditions: for T/C × 100: mean lesion size vs untreated control rats; for X-ray scan of hind legs: osteolytic lesions (in words): FIG. 3 and FIG. 4, one rat each, cells pre-exposed; for rats in which formation of osteolytic metastasis was inhibited (no visible metastasis): cells pre-exposed to ASO, observation period of eight weeks; for Incidence of metastasis: cells pretreated in vitro (10 μM)
[4] = eight weeks after tumor cell implantation
[5] = four weeks after tumor cell implantation, therapy from implantation
[6] = six weeks after tumor cell implantation
[7] = ten weeks after tumor cell implantation
[8] = Exp. III a, repeated exposure 2 × 5 μM
[9] = Exp. III a, repeated exposure 2 × 5 μM, control 456
[10] = Exp. III a, repeated exposure 2 × 10 μM
[11] = Exp. III a, repeated exposure 2 × 10 μM, control 456
[12] = Exp. III a, repeated exposure 2 × 20 μM
[13] = Exp. III a, repeated exposure 2 × 20 μM, control 456
[14] = Experiment I, single treatment, 5 μM
[15] = Experiment I, single treatment, 5 μM, control 778
[16] = Experiment I, single treatment, 10 μM
[17] = Experiment I, single treatment, 10 μM, control 778
[18] = Experiment I, single treatment, 20 μM
[19] = Experiment I, single treatment, 20 μM, control 778
[20] = Experiment III b, repeated exposure 2 × 5 μM
[21] = Experiment III b, repeated exposure 2 × 5 μM, control 517
[22] = Experiment III b, repeated exposure 2 × 10 μM
[23] = Experiment III b, repeated exposure 2 × 10 μM, control 517
[24] = Experiment III b, repeated exposure 2 × 20 μM
[25] = Experiment III b, repeated exposure 2 × 20 μM, control 517
[26] = observation period 4 weeks, pretreated cells
[27] = observation period 6 weeks, pretreated cells
[28] = observation period 8 weeks, pretreated cells
[29] = pretreated cells, after eight weeks
[30] = pretreated cells, week 4, vs mean of the two control groups (197 R.U.)
[31] = pretreated cells, week 8, vs mean of the two control groups (416 R.U.)
[32] = pretreated cells, after four weeks

Substance: 5′-CTAACTTAAAAAACAAAAGA-3′ (antisense CTAACTTAAAAAACAAAAGA; all phosphorothioate, sugars by position and methylation of C not given here) [ASO-OPN-4]
- X-ray scan of hind legs: lytic lesions (in words) [1, 4]: clear increase of lytic lesions in the tibia, however new formation of bone tissue at the edges of the lesions
- X-ray scan of hind legs: lytic lesions (in words) [1, 5]: small lytic lesions in the tibia
- X-ray scan of hind legs: lytic lesions (in words) [1, 6]: visible lytic lesions in the tibia
- X-ray scan of hind legs: lytic lesions (in words) [1, 7]: a decrease of the lesions is clearly visible
- T/C ([1]; mini-osmotic pumps, week 4): 58%
- T/C ([1]; mini-osmotic pumps, week 12): 26%
- T/C × 100 ([1]; week 4): 58
- Mean size of lesion ([1]; week 4, mini-osmotic pumps): 19 R.U.
- Size of lesion (per animal) ([1]; week 4, mini-osmotic pumps): 20 R.U. and 41 R.U. and 0 R.U. (2×) and 34 R.U.
- Incidence of metastasis ([1]; week 4, 7 mg/kg): three out of five and 3/5
- T/C × 100 ([1]; week 6): 41
- Mean size of lesion ([1]; week 6, mini-osmotic pumps): 73 R.U.
- Size of lesion (per animal) ([1]; week 6, mini-osmotic pumps): 35 R.U. and 285 R.U. and 0 R.U. (2×) and 46 R.U.
- Incidence of metastasis ([1]; week 6): 3/5
- T/C × 100 ([1]; week 8): 45
- Mean size of lesion ([1]; week 8, mini-osmotic pumps): 124 R.U.
- Size of lesion (per animal) ([1]; week 8, mini-osmotic pumps): 117 R.U. and 415 R.U. and 27 R.U. and 60 R.U. and 0 R.U.
- Incidence of metastasis ([1]; week 8): 4/5
- T/C × 100 ([1]; week 9): 48
- Mean size of lesion ([1]; week 9, mini-osmotic pumps): 134 R.U.
- Size of lesion (per animal) ([1]; week 9, mini-osmotic pumps): 435 R.U. and 123 R.U. and 53 R.U. and 57 R.U. and 0 R.U.
- Incidence of metastasis ([1]; week 9): 4/5
- T/C × 100 ([1]; week 10): 29
- Mean size of lesion ([1]; week 10, mini-osmotic pumps): 124 R.U.
- Size of lesion (per animal) ([1]; week 10, mini-osmotic pumps): 74 R.U. and 67 R.U. and 45 R.U. and 0 R.U.
- Incidence of metastasis ([1]; week 10): 4/5
- T/C × 100 ([1]; week 12): 26
- Mean size of lesion ([1]; week 12, mini-osmotic pumps): 112 R.U.
- Size of lesion (per animal) ([1]; week 12, mini-osmotic pumps): 31 R.U. (2×) and 64 R.U. and 0 R.U.
- Incidence of metastasis ([1]; week 12): 3
- % Control [2, 8]: 84%
- Mean colony no. [2, 9]: 381^6,8)
- % Control [2, 10]: 51%
- Mean colony no. [2, 11]: 233^7,8)
- % Control [2, 12]: 40%
- Mean colony no. [2, 13]: 181^7)
- % Control [2, 14]: 85%
- Mean colony no. [2, 15]: 658^6)
- % Control [2, 16]: 61%
- Mean colony no. [2, 17]: 475^7)
- % Control [2, 18]: 53%
- Mean colony no. [2, 19]: 416
- % Control [2, 20]: 63%
- Mean colony no. [2, 21]: 330^6,8)
- % Control [2, 22]: 57%
- Mean colony no. [2, 23]: 296^7,8)
- % Control [2, 24]: 50%
- Mean colony no. [2, 25]: 258^8)
- inhibition of colony formation (colony growth inhibition) ([2]; 5 μM): 15%
- inhibition of colony formation (colony growth inhibition) ([2]; 10 μM): 39%
- inhibition of colony formation (colony growth inhibition) ([2]; 20 μM, listed as ASO-OPN-04, 20 µM): 47% and 46%
- reduction of colony counts ([2]; 5 μM): 16%
- reduction of colony counts ([2]; 20 μM): 60%
- repeated exposure compared with single exposure, colony formation (in words) [2]: more effective than single exposure
- T/C × 100 ([3]; 4 weeks): 3.9
- T/C × 100 ([3]; 6 weeks): 3.8
- T/C × 100 ([3]; 8 weeks): 4.3
- X-ray scan of hind legs: osteolytic lesions (in words) ([3]; listed as ASO-OPN-04): no osteolysis; also recorded: no visible lytic lesions
- rats in which formation of osteolytic metastasis was inhibited (no visible metastasis) ([3]; listed as ASO-OPN-04): Three of four and 3 of 4
- Incidence of metastasis ([3]; observation period 4 weeks): 1/4
- Mean size of lesion [3, 26]: 8.5 R.U.
- Incidence of metastasis ([3]; observation period 6 weeks): 1/4
- Mean size of lesion [3, 27]: 11.5 R.U.
- Incidence of metastasis ([3]; observation period 8 weeks): 1/4^4)
- Mean size of lesion [3, 28]: 15 R.U.
- T/C % (mean lesion size compared to untreated control) [3, 29]: 4.3%
- lesion sizes with respect to all animals of the group compared to untreated control ([3]; pretreated cells, over observation period week 4 to week 8): about 4%
- lesion sizes of the one metastasis-bearing animal compared to the control ([3]; pretreated cells, overall observation period (8 weeks)): about 16%
- lesion size of the rat(s) that developed lytic metastasis ([3]; pretreated cells, week 4): 34 R.U.
- lesion size of the rat(s) that developed lytic metastasis, % of control [3, 30]: 17%
- lesion size of the rat(s) that developed lytic metastasis ([3]; pretreated cells, week 8): 60 R.U.
- lesion size of the rat(s) that developed lytic metastasis, % of control [3, 31]: 17%

Substance: 5′-GCT-TTC-TTC-GTT-TTC-ATT-TC-3′ [ASO-BSPII-6]
- X-ray scan of hind legs: lytic lesions (in words) [1, 4]: clear increase of lytic lesions in the tibia, however new formation of bone tissue at the edges of the lesions
- X-ray scan of hind legs: lytic lesions (in words) [1, 5]: small lytic lesions in the tibia
- X-ray scan of hind legs: lytic lesions (in words) [1, 6]: visible lytic lesions in the tibia
- X-ray scan of hind legs: lytic lesions (in words) [1, 7]: lytic lesions are no longer visible in the region of the tibia
- animals that did not develop metastases ([1]; mini-osmotic pumps, 12 weeks): one animal out of the five
- T/C ([1]; mini-osmotic pumps, week 4): 39%
- T/C ([1]; mini-osmotic pumps, week 12): 2%
- T/C × 100 ([1]; week 4): 39
- Mean size of lesion ([1]; week 4, mini-osmotic pumps): 13 R.U.
- Size of lesion (per animal) ([1]; week 4, mini-osmotic pumps): 11 R.U. and 0 R.U. and 32 R.U. and 8 R.U. and 23 R.U.
- Incidence of metastasis ([1]; week 4): 4/5
- T/C × 100 ([1]; week 6): 18
- Mean size of lesion ([1]; week 6, mini-osmotic pumps): 32 R.U.
- Size of lesion (per animal) ([1]; week 6, mini-osmotic pumps): 39 R.U. and 0 R.U. (2×) and 83 R.U. and 37 R.U.
- Incidence of metastasis ([1]; week 6): 3/5
- T/C × 100 ([1]; week 8): 11
- Mean size of lesion ([1]; week 8, mini-osmotic pumps): 29 R.U.
- Size of lesion (per animal) ([1]; week 8, mini-osmotic pumps): 52 R.U. and 0 R.U. (2×) and 50 R.U. and 43 R.U.
- Incidence of metastasis ([1]; week 8): 3/5
- T/C × 100 ([1]; week 9): 7
- Mean size of lesion ([1]; week 9, mini-osmotic pumps): 28 R.U.
- Size of lesion (per animal) ([1]; week 9, mini-osmotic pumps): 28 R.U. and 0 R.U. (2×) and 36 R.U. and 78 R.U.
- Incidence of metastasis ([1]; week 9): 3/5
- T/C × 100 ([1]; week 10): 5
- Mean size of lesion ([1]; week 10, mini-osmotic pumps): 20 R.U.
- Size of lesion (per animal) ([1]; week 10, mini-osmotic pumps): 17 R.U. and 0 R.U. (2×) and 29 R.U. and 52 R.U.
- Incidence of metastasis ([1]; week 10): 3/5
- T/C × 100 ([1]; week 12): 2
- Mean size of lesion ([1]; week 12, mini-osmotic pumps): 9 R.U.
- Size of lesion (per animal) ([1]; week 12, mini-osmotic pumps): 0 R.U. (3×) and 18 R.U. and 29 R.U.
- Incidence of metastasis ([1]; week 12): 2/5
- % Control [2, 8]: 91%
- Mean colony no. [2, 9]: 415^6,8)
- % Control [2, 10]: 82%
- Mean colony no. [2, 11]: 373^8)
- % Control [2, 12]: 72%
- Mean colony no. [2, 13]: 326^8)
- % Control [2, 14]: 89%
- Mean colony no. [2, 15]: 692^6)
- % Control [2, 16]: 81%
- Mean colony no. [2, 17]: 632^7)
- % Control [2, 18]: 61%
- Mean colony no. [2, 19]: 478
- % Control [2, 20]: 70%
- Mean colony no. [2, 21]: 363^6,8)
- % Control [2, 22]: 55%
- Mean colony no. [2, 23]: 282^8)
- % Control [2, 24]: 49%
- Mean colony no. [2, 25]: 251^8)
- inhibition of colony formation (colony growth inhibition) ([2]; 5 μM): 11%
- inhibition of colony formation (colony growth inhibition) ([2]; 10 μM): 19%
- inhibition of colony formation (colony growth inhibition) ([2]; 20 μM): 39%
- repeated exposure compared with single exposure, colony formation (in words) [2]: no increased inhibition of colony formation as compared with single exposure
- T/C × 100 ([3]; 4 weeks): 1.6
- T/C × 100 ([3]; 6 weeks): 2.9
- T/C × 100 ([3]; 8 weeks): 9.1
- X-ray scan of hind legs: osteolytic lesions (in words) [3]: a minute osteolytic lesion in the tibia only; also recorded: a small lesion in the tibia
- rats in which formation of osteolytic metastasis was inhibited (no visible metastasis) [3]: two out of four
- rats in which formation of osteolytic metastasis was inhibited (no visible metastasis) ([3]; listed as ASO-BSPII-06): two of four and 2 of 4
- Incidence of metastasis ([3]; observation period 4 weeks): 1/4
- Mean size of lesion [3, 26]: 3.5 R.U.
- Incidence of metastasis ([3]; observation period 6 weeks): 1/4
- Mean size of lesion [3, 27]: 8.8 R.U.
- Incidence of metastasis ([3]; observation period 8 weeks): 2/4
- Mean size of lesion [3, 28]: 31.5 R.U.
- Size of lesion (per animal) [3, 28]: 106^5) R.U.
- T/C % (mean lesion size compared to untreated control) [3, 29]: 9.1%
- lesion size of individual animal compared to the untreated control [3, 29]: about 30% and 6%
- animals in which formation of lytic metastases was prevented [3, 32]: three out of four
- lesion size of individual animal compared to the untreated control [3, 32]: 6.4%
- lesion size of individual animal compared to the untreated control ([3]; pretreated cells, after six weeks): about 12%
- lesion size of the rat(s) that developed lytic metastasis ([3]; pretreated cells, week 4): 14 R.U.
- lesion size of the rat(s) that developed lytic metastasis, % of control [3, 30]: 7%
- lesion size of the rat(s) that developed lytic metastasis ([3]; pretreated cells, week 8): 63 R.U.
- lesion size of the rat(s) that developed lytic metastasis, % of control [3, 31]: 15%
